Measurements taken from patent publication US20250289807A1, “Inhibitors of ROCK2” (Graviton Bioscience BV, priority 2022, published 2025).
Values after ≈ are worked out from the molar mass of the structure shown.

How the values were obtained:
ROCK2 = ROCK2 (Homo sapiens (Human), UniProt O75116); experiment: ADP-Glo kinase assay, ROCK2; type: biochemical; conditions: 40 μM ATP, 170 μM S6K substrate, 120 min
Experimental: (§1) ADP-Glo kinase assay (Promega). The ADP-Glo™ Kinase Assay is a luminescent ADP detection assay that allows measurement of kinase activity based on the amount of ADP produced during a kinase reaction. The kinase reaction is performed in the presence of ATP, S6K substrate ([…]) and the ROCK kinase in the appropriate Kinase Reaction Buffer (1×). Upon termination of the reaction, the unconsumed ATP is depleted by addition of ADP-Glo™ Reagent. Next, Kinase Detection Reagent is added to convert ADP to ATP and allow the newly synthesized ATP to be measured using a luciferase/luciferin reaction. The luminescence is proportional to the produced ADP and consequently to the kinase activity. The ADP-Glo™ Kinase Assay was performed in a 384 well plate format as follows.
(§2) Kinase Detection Reagent Preparation: The Kinase Detection Buffer was thawed at room temperature (RT). If a precipitate was present, the buffer was incubated at 37° C. with constant swirling for 15 minutes to dissolve the precipitate or the precipitate was removed from the buffer by carefully pipetting the supernatant from the bottle. After equilibrating both the Kinase Detection Buffer and Kinase Detection Substrate to room temperature, the entire volume of Kinase Detection Buffer was transferred into the bottle containing Kinase Detection Substrate to reconstitute the lyophilized substrate, followed by gentile mixing to obtain a homogeneous solution.
(§3) Kinase Reaction Buffer Preparation: Kinase reaction buffer was prepared freshly before each experiment.
(§4) ADP-Glo Reagents Preparation. Three mixes were prepared on ice before running the assay: • Mix 1—containing ROCK1 or ROCK2 in Kinase Reaction Buffer (1×) • Mix 2—containing S6K peptide in Kinase Reaction Buffer (1×) • Mix 3—containing ATP in Kinase Reaction Buffer (1×)
(§5) The ratios of reagent volumes in the assay were 1:1:2 of kinase reaction to ADP-Glo™ Reagent to Kinase Detection Reagent. For 384-well plates, volumes were: 5 μl of kinase reaction, 5 μl of ADP-Glo™ Reagent and 10 μl of Kinase Detection Reagent.
(§6) Generating a standard curve for conversion of ATP to ADP. To estimate the amount of ADP produced in the kinase reaction, a standard curve that represents the luminescence corresponding to the conversion of ATP to ADP was prepared based on the ATP concentration used in the kinase reaction. These conversion curves represent the amounts of ATP and ADP available in a reaction at the specified conversion percentage ranging from 100% conversion to 0% conversion. The standard samples used to generate an ATP-to-ADP conversion curve are created by combining the appropriate volumes of ATP and ADP stock solutions.
(§7) Each plate contained a positive control (1 μM Comp. A for ROCK2 and 1 μM RKI-1447 for ROCK1); a vehicle control (1% DMSO); a blank control (kinase reaction buffer (1×)); a low control (substrate and ATP, without kinase); and an autophosphorylation control (kinase and ATP, without substrate). Test and reference compounds were diluted in 100% DMSO to obtain 10 mM stock solutions. Each compound was tested in 8-serial dilutions in duplicate. The final concentration of DMSO in the reaction was 1% (up to 50 nL).
(§8) 5 μl/well Kinase Reaction Buffer (1×) was dispensed to blank control wells. 2 μl/well Kinase Reaction Buffer (1×) was dispensed to control without protein (low control) and without substrate (autophosphorylation) wells. The plate was sealed with adhesive film followed by a short spin (1 min, 1000 rpm).
(§9) 2 μl/well kinase (2.5×) solution was dispensed into relevant wells of the assay plate. The plate was sealed with adhesive film followed by a short spin (1 min, 1000 rpm).
(§10) The plate was sealed with adhesive film followed by a short spin (1 min, 1000 rpm).
(§11) 1 μl/well ATP (5×) solution was dispensed into relevant wells of the assay plate. The final volume of reaction was […]. The plate was sealed with adhesive film followed by a short spin (1 min, 1000 rpm).

ROCK1 = ROCK1 (Homo sapiens (Human), UniProt Q13464); experiment: ADP-Glo kinase assay, ROCK1; type: biochemical; conditions: 10 μM ATP, 170 μM S6K substrate, 120 min
ROCK1, sequence (Q13464 whole entry): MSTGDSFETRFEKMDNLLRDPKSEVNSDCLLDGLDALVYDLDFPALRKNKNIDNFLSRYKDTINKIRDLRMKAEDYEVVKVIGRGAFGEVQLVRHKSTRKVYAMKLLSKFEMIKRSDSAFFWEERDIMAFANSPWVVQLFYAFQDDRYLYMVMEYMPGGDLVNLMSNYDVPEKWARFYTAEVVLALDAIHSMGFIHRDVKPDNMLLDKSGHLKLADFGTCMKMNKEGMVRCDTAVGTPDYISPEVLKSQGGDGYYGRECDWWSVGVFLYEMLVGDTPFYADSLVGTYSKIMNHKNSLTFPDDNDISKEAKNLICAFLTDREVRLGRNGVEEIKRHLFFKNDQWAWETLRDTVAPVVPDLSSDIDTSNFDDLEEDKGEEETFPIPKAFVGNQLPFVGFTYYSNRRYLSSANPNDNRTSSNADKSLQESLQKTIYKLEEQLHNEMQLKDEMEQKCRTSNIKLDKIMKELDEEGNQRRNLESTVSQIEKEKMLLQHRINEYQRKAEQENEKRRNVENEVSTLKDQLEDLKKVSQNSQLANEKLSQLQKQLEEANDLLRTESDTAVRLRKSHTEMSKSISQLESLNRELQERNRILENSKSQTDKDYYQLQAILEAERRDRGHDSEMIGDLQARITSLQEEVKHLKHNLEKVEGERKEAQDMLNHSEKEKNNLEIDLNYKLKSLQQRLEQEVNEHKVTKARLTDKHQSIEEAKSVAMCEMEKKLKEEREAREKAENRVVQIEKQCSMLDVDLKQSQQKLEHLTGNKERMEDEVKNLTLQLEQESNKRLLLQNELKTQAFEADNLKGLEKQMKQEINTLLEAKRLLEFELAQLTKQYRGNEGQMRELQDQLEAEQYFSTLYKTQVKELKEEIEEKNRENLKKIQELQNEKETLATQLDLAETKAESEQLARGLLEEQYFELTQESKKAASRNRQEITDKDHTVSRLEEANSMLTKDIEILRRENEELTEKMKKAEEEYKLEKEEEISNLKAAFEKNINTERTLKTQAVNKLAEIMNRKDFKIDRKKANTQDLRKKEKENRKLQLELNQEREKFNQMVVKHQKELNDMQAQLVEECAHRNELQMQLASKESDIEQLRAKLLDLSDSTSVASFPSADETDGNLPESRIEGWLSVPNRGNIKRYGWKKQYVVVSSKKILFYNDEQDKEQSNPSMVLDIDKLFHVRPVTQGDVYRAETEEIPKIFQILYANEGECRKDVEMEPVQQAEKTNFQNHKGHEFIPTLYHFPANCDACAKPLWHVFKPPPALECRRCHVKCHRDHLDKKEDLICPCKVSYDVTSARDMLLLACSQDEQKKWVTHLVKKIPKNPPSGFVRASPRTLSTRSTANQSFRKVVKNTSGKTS
Experimental: as §1, §2, §3, §4, §5, §6, §7, §8, §9, §10, §11

Kinetic solubility = type: physicochemical; conditions: kinetic from dmso stock
[1] = test system: IL-17 secretion in human CD4+ T cells; experiment: IL-17 secretion in Th17-skewed human CD4+ T cells (ELISA); type: cell-based; conditions: anti-CD3/28 mAbs, IL-1β (50 ng/mL) and TGF-β (5 ng/mL), 48 hours
Experimental: In this study, peripheral blood CD4^+ T cells were treated with the indicated doses of the ROCK2 inhibitors and then stimulated by anti-CD3/28 mAbs, IL-1β (50 ng/mL) and TGF-β (5 ng/mL) for 48 hours. The supernatants were analyzed for IL-17 by ELISA. One representative of three different experiments is shown.

[2] = test system: STAT3 phosphorylation in human CD4+ T cells; experiment: STAT3 phosphorylation in Th17-skewed human CD4+ T cells (Western Blot); type: cell-based; conditions: stimulated 2 hours, FIG. 3
Experimental: (§12) In these studies, peripheral blood CD4^+ T cells were treated with indicated doses of inhibitors and then stimulated by anti-CD3/28 mAbs, IL-1β (50 ng/mL) and TGF-β (5 ng/mL) for 2 hours. The cell lysates were prepared and analyzed by Western Blot. One representative of three different experiments is shown.

[3] = test system: pCofilin in human CD4+ T cells; experiment: pCofilin in human CD4+ T cells (Western Blot); type: cell-based; conditions: stimulated 2 hours, FIG. 4
Experimental: as §12

[4] = test system: human lung fibroblast MRC-5 cells; experiment: TGF-β-induced pro-fibrogenic gene expression in MRC-5 fibroblasts (RT-PCR); type: cell-based; conditions: MRC-5, TGF-β1 2.5 ng/mL, 48 hours, FIG. 5
Experimental: (§13) ROCKs are activated by small GTPase Rho in response to a variety of profibrotic signals and regulate cytoskeletal dynamics, activation of different down-stream intracellular targets and expression of key profibrotic genes, such as fibronectin, smooth muscle actin (α-SMA) and collagen 3 (Col3A1).
(§14) In these studies, human lung fibroblast MRC-5 cells were acquired from American Type Culture Collection (ATCC) and cultured in MEM supplemented with 10% fetal bovine serum. The cells were seeded in 24-well cell culture plates at 50,000/mL/well. On the following day, the cells were starved in MEM containing 0.5% FBS for overnight. […] Cellular mRNA was isolated and mRNA expression of indicated genes (fibronectin, αSMA and col3A) was analyzed by RT-PCR (FIG. 5). Secreted pro-collagen 1a (Col1A1) in supernatants was measured by ELISA (FIG. 6).

[5] = test system: human lung fibroblast MRC-5 cells; experiment: Col1A protein secretion in MRC-5 supernatants (ELISA); type: cell-based; conditions: MRC-5, TGF-β1 2.5 ng/mL, 48 hours, FIG. 6
Experimental: as §13, §14

[6] = test system: Human subcutaneous adipocytes; experiment: Adipogenesis in primary human adipocytes (Oil Red staining); type: cell-based; conditions: adipogenic cocktail, 10 days, Oil Red absorbance, FIG. 7
Experimental: Adipogenesis is a multi-step complex process, progressing from precursor stem cells to adipocytes that synthesize and store fat. […] ROCKs have been implicated in regulation of adipocyte differentiation, however the isoform-specific contribution to adipogenesis and other metabolic pathways is not well characterized. […] In this study, Human subcutaneous adipocytes were grown to confluence before induction to differentiation by adipogenic cocktail (0.1 μM dexamethasone, 1 μM insulin, 200 μM indomethacin, 250 μM isobutyl methylxanthine (IBMX)) in the presence of indicated concentrations of Ex. 1 or Ex. 2 for 10 days. Differentiated cells were stained by Oil Red which was extracted by isopropanol and measured by absorbance at 492 nm.

[7] = test system: mouse 3T3-L1 pre-adipocytes; conditions: cited from earlier work
[8] = test system: human adipose-derived stem cells; conditions: cited from earlier work

ROCK2, sequence (O75116 whole entry): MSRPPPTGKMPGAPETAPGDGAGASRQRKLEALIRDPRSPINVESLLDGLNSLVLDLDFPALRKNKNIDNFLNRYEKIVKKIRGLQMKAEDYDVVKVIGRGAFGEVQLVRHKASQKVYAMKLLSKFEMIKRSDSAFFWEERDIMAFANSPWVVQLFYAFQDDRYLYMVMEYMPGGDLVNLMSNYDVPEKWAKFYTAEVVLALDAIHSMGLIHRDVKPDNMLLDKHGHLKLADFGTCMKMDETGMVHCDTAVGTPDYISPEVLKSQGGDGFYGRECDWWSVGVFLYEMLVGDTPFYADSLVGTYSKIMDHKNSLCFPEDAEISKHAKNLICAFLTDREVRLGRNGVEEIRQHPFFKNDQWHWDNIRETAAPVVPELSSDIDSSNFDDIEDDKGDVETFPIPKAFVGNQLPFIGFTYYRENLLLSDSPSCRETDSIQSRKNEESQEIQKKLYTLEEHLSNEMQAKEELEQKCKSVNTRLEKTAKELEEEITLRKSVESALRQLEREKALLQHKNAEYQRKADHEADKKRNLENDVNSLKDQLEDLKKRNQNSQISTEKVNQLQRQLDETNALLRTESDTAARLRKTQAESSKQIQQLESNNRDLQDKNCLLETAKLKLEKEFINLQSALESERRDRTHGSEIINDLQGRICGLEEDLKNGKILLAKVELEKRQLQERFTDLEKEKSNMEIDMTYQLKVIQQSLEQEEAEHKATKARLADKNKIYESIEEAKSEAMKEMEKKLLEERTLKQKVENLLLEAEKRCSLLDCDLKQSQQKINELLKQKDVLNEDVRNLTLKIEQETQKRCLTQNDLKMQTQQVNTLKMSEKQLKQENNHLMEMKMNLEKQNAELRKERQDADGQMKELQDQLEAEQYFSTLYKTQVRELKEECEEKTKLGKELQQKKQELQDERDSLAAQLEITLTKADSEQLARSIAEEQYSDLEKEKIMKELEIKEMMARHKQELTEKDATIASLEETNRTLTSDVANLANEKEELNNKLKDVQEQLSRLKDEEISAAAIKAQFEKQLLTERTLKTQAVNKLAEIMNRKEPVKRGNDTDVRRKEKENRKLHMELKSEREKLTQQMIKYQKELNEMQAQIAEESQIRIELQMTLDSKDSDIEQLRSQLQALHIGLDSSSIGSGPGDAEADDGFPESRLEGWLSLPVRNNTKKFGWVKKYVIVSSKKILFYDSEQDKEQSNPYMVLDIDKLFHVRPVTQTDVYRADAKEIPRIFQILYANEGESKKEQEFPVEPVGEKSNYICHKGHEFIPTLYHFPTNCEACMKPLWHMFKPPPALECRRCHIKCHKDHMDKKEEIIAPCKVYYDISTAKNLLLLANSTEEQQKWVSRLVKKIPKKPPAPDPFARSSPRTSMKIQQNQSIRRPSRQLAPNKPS

| SMILES | IC50 (ROCK2) | IC50 (ROCK1) | further results |
| --- | --- | --- | --- |
| Cn1c(C(=O)N2CC(F)(F)C2)cc2ccc(-c3nccc(Nc4ccc(-c5cn[nH]c5)cc4)n3)cc21 [Comp. A, reference compound] | 0.00229 µM | 3.21 µM | solubility kinetic (Kinetic solubility): < 1.9 µg/mL |
| Cn1c(C(=O)N2CC(F)(F)C2)cc2ccc(-c3nccc(Nc4ccc(-c5cnc[nH]5)cc4)n3)cc21 [Example 1, 2-[2-(3,3-difluoroazetidine-1-carbonyl)-1-methyl-1H-indol-6-yl]-N-[4-(1H-imidazol-5-yl)phenyl]pyrimidin-4-amine] | – | > 50 µM | solubility kinetic (Kinetic solubility): 2.2 µg/mL (≈ 4.53 µM); EC50 [1]: 0.838 µM; STAT3 phosphorylation induced by Th17-skewing activation [2]: down-regulate STAT3 phosphorylation; pCofilin [3]: down-regulate pCofilin; TGF-β-induced Col3A1 gene expression [4]: down-regulate dose-dependently; TGF-β-induced fibronectin gene expression [4]: down-regulate dose-dependently; TGF-β-induced α-SMA gene expression [4]: down-regulate dose-dependently; Col1A protein production in supernatants [5]: down-regulate dose-dependently; adipogenesis [6]: down-regulate adipogenesis in a dose-dependent manner |
| Cn1c(C(=O)N2CC(F)(F)C2)cc2ccc(-c3nccc(Nc4ccc(-c5c[nH]nn5)cc4)n3)cc21 [Example 2, 2-[2-(3,3-difluoroazetidine-1-carbonyl)-1-methyl-1H-indol-6-yl]-N-[4-(1H-1,2,3-triazol-4-yl)phenyl]pyrimidin-4-amine] | – | > 50 µM | solubility kinetic (Kinetic solubility): 2.69 µg/mL (≈ 5.53 µM); EC50 [1]: 0.764 µM; STAT3 phosphorylation induced by Th17-skewing activation [2]: down-regulate STAT3 phosphorylation; pCofilin [3]: down-regulate pCofilin; TGF-β-induced Col3A1 gene expression [4]: down-regulate dose-dependently; TGF-β-induced fibronectin gene expression [4]: down-regulate dose-dependently; TGF-β-induced α-SMA gene expression [4]: down-regulate dose-dependently; Col1A protein production in supernatants [5]: down-regulate dose-dependently; adipogenesis [6]: down-regulate adipogenesis in a dose-dependent manner |
| O=C(c1cc2c(s1)CN(c1nccc(Nc3ccc(-c4c[nH]nn4)cc3)n1)CC2)N1CC(F)(F)C1 [Example 3′, 2-[2-(3,3-difluoroazetidine-1-carbonyl)-4H,5H,6H,7H-thieno[2,3-c]pyridin-6-yl]-N-[4-(1H-1,2,3-triazol-4-yl)phenyl]pyrimidin-4-amine] | 0.961 µM | 2.73 µM | – |
| CN(C)C(=O)Cn1c(C(=O)N2CC(F)(F)C2)cc2ccc(-c3nccc(Nc4ccc(-c5cnc[nH]5)cc4)n3)cc21 [Example 4] | – | > 50 µM | – |
| Cn1c(C(=O)N2CCC(F)(F)C2)cc2ccc(-c3nccc(Nc4ccc(-c5cnc[nH]5)cc4)n3)cc21 [Example 7] | – | 2.1 µM | – |
| C[C@H](NC(=O)c1cc2ccc(-c3nccc(Nc4ccc(-c5cnc[nH]5)cc4)n3)cc2n1CCN(C)C)C(F)(F)F [Example 8] | – | 10.7 µM | – |
| C[C@H](NC(=O)c1cc2ccc(-c3nccc(Nc4ccc(-c5cnc[nH]5)cc4)n3)cc2n1C)C(F)(F)F [Example 9] | – | 0.746 µM | – |
| C[C@H](NC(=O)c1cc2ccc(-c3nccc(Nc4ccc(-c5cnc[nH]5)cc4)n3)cc2n1CC1COC1)C(F)(F)F [Example 10] | – | 4 µM | – |
| Cn1c(C(=O)N2CCCC2)cc2ccc(-c3nccc(Nc4ccc(-c5cnc[nH]5)cc4)n3)cc21 [Example 12] | 10 µM | 2.28 µM | – |
| CN(C)CCn1c(C(=O)N2CCC(F)(F)C2)cc2ccc(-c3nccc(Nc4ccc(-c5cnc[nH]5)cc4)n3)cc21 [Example 13] | 10 µM | 4.29 µM | – |
| CN(C)CCn1c(C(=O)N2CC(F)(F)C2)cc2ccc(-c3nccc(Nc4ccc(-c5cn[nH]n5)cc4)n3)cc21 [Example 15] | – | 0.281 µM | – |
| Cn1c(C(=O)N2CCCC2)cc2ccc(-c3nccc(Nc4ccc(-c5cn[nH]n5)cc4)n3)cc21 [Example 16] | – | 0.792 µM | – |
| CN(C)CCn1c(C(=O)N2CCC(F)(F)C2)cc2ccc(-c3nccc(Nc4ccc(-c5cn[nH]n5)cc4)n3)cc21 [Example 18] | – | 23.2 µM | – |
| O=C(c1cc2ccc(-c3nccc(Nc4ccc(-c5cn[nH]n5)cc4)n3)cc2o1)N1CC(F)(F)C1 [Example 19] | 10 µM | 2.01 µM | – |
| O=C(c1nc2ccc(-c3nccc(Nc4ccc(-c5cn[nH]n5)cc4)n3)cc2[nH]1)N1CC(F)(F)C1 [Example 22] | – | 25.2 µM | – |
| O=C(c1cc2c(s1)CN(c1nccc(Nc3ccc(-c4cnc[nH]4)cc3)n1)CC2)N1CC2C(C1)C2(F)F (centres unmarked) [Example 23] | 0.334 µM | 8.91 µM | – |
| O=C(c1cc2c(s1)CN(c1nccc(Nc3ccc(-c4cnn[nH]4)cc3)n1)CC2)N1CC2C(C1)C2(F)F (centres unmarked) [Example 24] | 0.207 µM | 1.22 µM | – |
| O=C(c1cc2c(s1)CN(c1nccc(Nc3ccc(-c4cnc[nH]4)cc3)n1)CC2)N1CCC(F)(F)C1 [Example 25] | – | 6.85 µM | – |
| CC(C)NC(=O)COc1cccc(-c2nc(Nc3ccc4[nH]ncc4c3)c3ccccc3n2)c1 [KD025] | – | – | adipocyte differentiation [7]: down-regulated adipocyte differentiation; adipocyte differentiation [8]: down-regulated adipocyte differentiation |
